Consider 2 compounds from patent US20180078516A1 (InnovaZone Labs LLC, priority 2016, published 2018).

The conditions of series [1]: cited from earlier work.
The conditions of series [2]: cited from earlier work. The source holds these as a separate data set.
Series [3] is described as follows: clinical. As to conditions: human, in vivo, po, 400 mg.

The structures appear in SMILES notation.

On to `CC(C)Cc1ccc(C(C)C(=O)O)cc1` (racemic) [Ibuprofen, (R,S)-2-(4-isobutylphenyl) propionic acid], for which the solubility in water result in series [1] is given as “practically insoluble”. For the same compound, the “onset of therapeutic effects after oral administration” value in series [2] was “between 45 minutes and one hour”. With `CC(C)Cc1ccc(C(C)C(=O)O)cc1` (racemic) [ibuprofen sodium dihydrate, (R,S)-2-(4-isobutylphenyl) propionate sodium], the time to peak (Tmax) in series [3] was about 35 min.
